Assay results taken from publication PMC5378956, “Inhibition of delta-secretase improves cognitive functions in mouse models of Alzheimer's disease” (Nature Communications, 2017).

How the values were obtained:
[1] = target: δ-secretase (Mus musculus, UniProt O89017); test: Cleavage of GST-tau and GFP-APP by kidney lysates, Western blot; conditions: kidney lysates with GST-tau or GFP-APP
[2] = target: T1, GAPDH (Mus musculus, UniProt P16858); test: GAPDH activity assay in primary neurons; format: cell-based
T1 construct: GAPDH activity in primary neurons; endogenous in cells; host or cells: primary neurons (mouse cortical)
Description: GAPDH activity was assessed using the GAPDH Activity Assay Kit (Biovision) according to the manufacture's instructions.

[3] = test system: primary neurons; test: LDH release of primary neurons after OGD; format: cell-based, mouse; conditions: wild-type neurons
[4] = Caco-2 monolayer permeability screen; conditions: human, Caco-2
Description: Supplementary Table 3: Caco-2 permeability and BBB-PAMPA permeability
For CaCo-2 permeability assay, cells were incubated with 10 µM of these reagents in
buffers for 2 h, and the receiver side buffer is removed for analysis by LC/MS/MS. Efflux […]
LLOQ: Lower Limit of Quantification; Papp: apparent permeability.

[5] = Liver microsomal stability, mouse; conditions: mouse, microsomes, 0.5 h, pH 7.4
Description: (§1) Supplementary Table 4: Liver microsomal stability
(§2) Compound Species Mean Remaining Parent Mean Remaining Parent
(§3) (with NADPH) (NADPH-free)
(§4) The test agents were incubated in duplicate with microsomes at 37 °C for 30 min. The reaction contained microsomal protein in 100 mM potassium phosphate, 2 mM NADPH, 3 mM MgCl2, pH 7.4. A control was run for each test agent omitting NADPH to detect NADPH-free degradation. Data are reported as % remaining of parent compound. ND, Peak not detected due to bioanalysis issue (poor ionization).

[6] = Liver microsomal stability, human; conditions: human, microsomes, 0.5 h, pH 7.4
Description: as §1, §2, §3, §4

T1 sequence (P16858 whole entry): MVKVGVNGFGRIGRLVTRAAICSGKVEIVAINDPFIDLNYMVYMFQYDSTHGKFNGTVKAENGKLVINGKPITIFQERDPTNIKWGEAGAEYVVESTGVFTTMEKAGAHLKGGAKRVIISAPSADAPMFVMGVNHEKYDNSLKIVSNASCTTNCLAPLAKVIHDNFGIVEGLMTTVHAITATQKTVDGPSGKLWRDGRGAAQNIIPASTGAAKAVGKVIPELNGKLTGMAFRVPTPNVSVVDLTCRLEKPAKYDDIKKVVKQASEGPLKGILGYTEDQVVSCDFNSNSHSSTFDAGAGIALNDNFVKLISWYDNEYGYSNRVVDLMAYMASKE
Sequence of δ-secretase (O89017 18-435): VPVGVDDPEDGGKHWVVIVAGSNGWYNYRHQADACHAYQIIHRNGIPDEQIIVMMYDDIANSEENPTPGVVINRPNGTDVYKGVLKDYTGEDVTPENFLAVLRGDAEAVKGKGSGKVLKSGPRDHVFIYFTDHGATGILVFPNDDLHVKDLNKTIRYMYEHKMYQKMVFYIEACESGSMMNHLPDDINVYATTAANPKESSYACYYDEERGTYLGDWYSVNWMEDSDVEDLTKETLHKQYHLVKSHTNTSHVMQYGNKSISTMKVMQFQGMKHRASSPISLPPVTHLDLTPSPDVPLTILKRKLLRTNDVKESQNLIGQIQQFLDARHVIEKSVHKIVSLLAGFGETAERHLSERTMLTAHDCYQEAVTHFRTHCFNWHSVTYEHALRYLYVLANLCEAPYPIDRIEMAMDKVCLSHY

| GAPDH inhibition ([2]; 2 μM) | GAPDH inhibition ([2]; 50 μM) | Papp A→B at 2 h, 10 µM [4] [×10⁻⁶ cm/s] | Mean Remaining Parent (NADPH-free) [5] [%] | Mean Remaining Parent (with NADPH) [5] [%] | Papp B→A at 2 h, 10 µM [4] [×10⁻⁶ cm/s] | Mean Remaining Parent (NADPH-free) [6] [%] | Mean Remaining Parent (with NADPH) [6] [%] | Compound | cleavage of tau and APP by δ-secretase in vitro [1] | neuronal injury (LDH in medium) induced by OGD [3] |
| --- | --- | --- | --- | --- | --- | --- | --- | --- | --- | --- |
| robustly blocked GAPDH | robustly blocked GAPDH | – | – | – | – | – | – | CC(C)[C@H]1CC[C@@]2(CO2)[C@H]2C(=O)OCC(C(=O)O)=C[C@H]12 [KA, koningic acid, reference compound] | did not affect the cleavage of tau and APP | neither compound 11d15 nor KA showed any neuroprotective effect |
| – | – | 0.8 | – | – | – | – | – | CNC(=C[N+](=O)[O-])NCCSCc1ccc(CN(C)C)o1 [Ranitidine, reference compound] | – | – |
| – | – | 28.5 | 100 | 91 | 12.6 | 104 | 96 | CC(=O)CC(c1ccccc1)c1c(O)c2ccccc2oc1=O (centres unmarked) [Warfarin, reference compound] | – | – |
